According to patent US8680132B2, “Spiro-oxindole MDM2 antagonists” (priority 2010, dated 2014):
Several values for one entry are separate records, joined by “and”; a condition that tells them apart may be missing. Identical values can stand only once. Counter-ions that a name gives are not always drawn. Like-named read-outs stand apart in the source and are kept apart here.

Key:
[1] = molecular target: recombinant human His-tagged MDM2 protein (residues 1-118) (Homo sapiens (Human), UniProt Q00987); assay: Fluorescence-polarization MDM2 binding assay (Example 2); conditions: Table 2A; no unit in the cell (μM unless otherwise indicated)
Sequence of recombinant human His-tagged MDM2 protein (residues 1-118) (Q00987 1-118): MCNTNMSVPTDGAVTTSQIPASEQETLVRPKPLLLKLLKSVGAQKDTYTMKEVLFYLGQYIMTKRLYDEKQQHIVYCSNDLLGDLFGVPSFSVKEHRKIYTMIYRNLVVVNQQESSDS

PC-3 (deleted p53) = assay: Cell growth assay (WST-8); format: cell-based
HCT-116 (p53 wild-type) = assay: Cell growth assay (WST-8); format: cell-based, human
SJSA-1 (p53 wild-type) = assay: Cell growth assay (WST-8); format: cell-based
HCT-116 (p53—/—) = assay: Cell growth assay (WST-8); format: cell-based; conditions: Homo sapiens, HCT-116, 96 h, read-out: IC50 HCT-116 (p53—/—)
LNCAP (p53 wild-type) = assay: Cell growth assay (WST-8); format: cell-based, human
[2] = tested on: prostate cancer cell line 22Rv1; assay: Growth inhibition assay (Celltiter-Glo), 22Rv1; format: cell-based; conditions: Homo sapiens, read-out: IC50 growth inhibition
RS4; 11 (p53 wt) [3] = assay: cells; conditions: Homo sapiens, RS4-11, 96 h, read-out: RS4, 11 (p53 wt) IC50 (μM)
Ly7 = assay: Anti-proliferative ATP assay; format: cell-based; conditions: GCB-DLBCL, p53 WT/MUT
22RV1 = assay: Anti-proliferative ATP assay; format: cell-based; conditions: Homo sapiens, prostate, p53 WT/MUT
MCF7 = assay: Anti-proliferative ATP assay; format: cell-based; conditions: Homo sapiens, breast, p53 WT/WT
MOLM13 = assay: Anti-proliferative ATP assay; format: cell-based; conditions: Homo sapiens, MOLM-13, AML, p53 WT/WT, FLT3-ITD
Procedure: The anti-proliferative IC50 was determined by ATP assay.

EHEB = assay: Anti-proliferative ATP assay; format: cell-based; conditions: CLL, p53 WT/WT
DoHH2 = assay: Anti-proliferative ATP assay; format: cell-based; conditions: Homo sapiens, DOHH-2, GCB-DLBCL, p53 WT/WT, BCL2 overexpression
U2OS = assay: Anti-proliferative ATP assay; format: cell-based; conditions: Homo sapiens, bone, p53 WT/WT
[4] = tested on: SJSA-1 (osteosarcoma) tumors; assay: In vivo efficacy, SJSA-1 xenograft model; set-up: species or system mice; conditions: single 200 mg/kg dose (QD1 treatment) versus QD7 treatment; FIG. 22
Procedure: A cell sample was mixed 1:1 with Trypan Blue (GIBCO™, Invitrogen Corp.) and counted on a hemocytometer to determine the number of live/dead cells. Cells were washed once with 1×PBS (GIBCO™, Invitrogen Corp.) and resuspended in PBS. […] Cells were injected s.c. into the flank region of each mouse using a 27 gauge needle. The size of tumors growing in the mice was measured in two dimensions using calipers. Tumor volume (mm^3)=(A×B^2)/2 where A and B are the tumor length and width (in mm), respectively. During treatment, tumor volume and body weight was measured three times a week. After the treatment was stopped, tumor volume (FIGS. 17, 20, 22, and 23) and body weight (FIGS. 18 and 21) was measured at least once a week. Mice were kept for an additional 60 days for further observation of tumor growth and toxicity. […] Before treatment began, tumors were allowed to grow to 60-140 mm^3 in volume, at which point the blood vessel supplies to the tumor should have been established. […] The Control group received vehicle alone (10% PEG 400:3% Cremophor:87% PBS).

LnCap = assay: Anti-proliferative ATP assay; format: cell-based; conditions: Homo sapiens, prostate, p53 WT/WT
Hs746T = assay: Anti-proliferative ATP assay; format: cell-based; conditions: Homo sapiens, gastric, Met amplified
Y79 = assay: Anti-proliferative ATP assay; format: cell-based; conditions: Homo sapiens, retinoblastome, p53 WT/WT, Rb mutated
SNU-5 = assay: Anti-proliferative ATP assay; format: cell-based; conditions: Homo sapiens, gastric, Met amplified
SR = assay: Anti-proliferative ATP assay; format: cell-based; conditions: Homo sapiens, lymphoma, p53 WT/WT
RKO = assay: Anti-proliferative ATP assay; format: cell-based; conditions: Homo sapiens, colon, p53 WT/WT
H1299 = assay: Anti-proliferative ATP assay; format: cell-based; conditions: Homo sapiens, NCI-H1299, lung, p53 —/—
Ly10 = assay: Anti-proliferative ATP assay; format: cell-based; conditions: ABC-DLBCL, p53 WT/WT
H929 = assay: Anti-proliferative ATP assay; format: cell-based; conditions: Homo sapiens, NCI-H929, MM, p53 WT/WT
SJSA1 = assay: Anti-proliferative ATP assay; format: cell-based; conditions: Homo sapiens, SJSA-1, bone, p53 WT/WT, MDM2 amplified
RS4; 11 (p53 wt) [5] = conditions: read-out: RS4, Four day treatment
JAR = assay: Anti-proliferative ATP assay; format: cell-based; conditions: placenta, p53 WT/WT, MDM2 amplified
HCT116 = assay: Anti-proliferative ATP assay; format: cell-based; conditions: Homo sapiens, HCT-116, colon, p53 WT/WT
LY3 = assay: Anti-proliferative ATP assay; format: cell-based; conditions: ABC-DLBCL, p53 WT/WT
MKN45 = assay: Anti-proliferative ATP assay; format: cell-based; conditions: Homo sapiens, MKN-45, gastric, p53 WT/WT, Met amplified
Capan2 = assay: Anti-proliferative ATP assay; format: cell-based; conditions: Homo sapiens, Capan-2, pancreas, p53 —/—
MV4; 11 = assay: Anti-proliferative ATP assay; format: cell-based; conditions: Homo sapiens, AML, p53 WT/WT, FLT3-ITD
Ku812 = assay: Anti-proliferative ATP assay; format: cell-based; conditions: Homo sapiens, CML-BC, p53 WT/WT
SNU-1 = assay: Anti-proliferative ATP assay; format: cell-based; conditions: Homo sapiens, SNU1, gastric, p53 WT/WT, KRAS mut
CCF-STTG1 = assay: Anti-proliferative ATP assay; format: cell-based; conditions: Homo sapiens, CNS, p53 WT/WT, MDM2 amplified
Rec1 = assay: Anti-proliferative ATP assay; format: cell-based; conditions: Homo sapiens, MCL, p53 WT/WT
RS4; 11 = assay: Anti-proliferative ATP assay; format: cell-based; conditions: Homo sapiens, ALL, p53 WT/WT
[6] = 96 h, read-out: IC50 PC-3 (deleted p53)
[7] = Homo sapiens, HCT-116, 96 h, read-out: IC50 HCT-116 (p53 wild-type)
[8] = Homo sapiens, SJSA-1, 96 h, read-out: IC50 SJSA-1 (p53 wild-type)
[9] = Homo sapiens, LNCaP, 96 h, read-out: IC50 LNCAP (p53 wild-type)
[10] = Homo sapiens, HCT-116, read-out: IC50 HCT-116 (p53 wild-type)
[11] = Homo sapiens, SJSA-1, read-out: IC50 SJSA-1 (p53 wild-type)
[12] = Homo sapiens, LNCaP, read-out: IC50 LNCAP (p53 wild-type)

`CCN1[C@@H](CC(C)(C)C)[C@@]2(C(=O)Nc3cc(Cl)ccc32)[C@@H](c2cccc(Cl)c2F)[C@@H]1C(=O)N[C@H]1C[C@@](C)(O)C1` [C29701] gave an IC50 [1] of less than 0.1 µM.
Compound `CN1[C@@H](CC(C)(C)C)[C@@]2(C(=O)Nc3cc(Cl)ccc32)[C@@H](c2cccc(Cl)c2F)[C@@H]1C(=O)N[C@H]1C[C@@](C)(O)C1` [C30201] has an IC50 [1] of less than 0.1 µM.
For `CC(C)(C)C[C@H]1N[C@@H](C(=O)N[C@H]2C[C@@](C)(O)C2)[C@H](c2cccc(Cl)c2F)[C@@]12C(=O)Nc1cc(Cl)ccc12` [MI-519-64], the IC50 (PC-3 (deleted p53); [6]) was 6100 nM, the IC50 (HCT-116 (p53 wild-type); [7]) was 180 nM and the IC50 (SJSA-1 (p53 wild-type); [8]) was 270 nM. It also gave an IC50 (HCT-116 (p53—/—)) of 13700 nM and an IC50 (LNCAP (p53 wild-type); [9]) of 500 nM.
`CC(C)(C)C[C@H]1N[C@@H](C(=O)N[C@H]2C[C@](C)(O)C2)[C@H](c2cccc(Cl)c2F)[C@@]12C(=O)Nc1cc(Cl)ccc12` [MI-519-65] gave an IC50 (HCT-116 (p53 wild-type); [10]) of less than 3000 nM, an IC50 (SJSA-1 (p53 wild-type); [11]) of less than 3000 nM and an IC50 (LNCAP (p53 wild-type); [12]) of less than 3000 nM.
Compound `CC(C)(C)C[C@@H]1N[C@@H](C(=O)N[C@H]2C[C@@](C)(O)C2)[C@H](c2cccc(Cl)c2F)[C@]12C(=O)Nc1cc(Cl)ccc12` [MI-519-6401] has an IC50 (PC-3 (deleted p53); [6]) of 10500 nM, an IC50 (HCT-116 (p53 wild-type); [7]) of 102 nM and an IC50 ([2]; 22Rv1, 96 h) of 100 to 500 nM. It also gave an IC50 (SJSA-1 (p53 wild-type); [8]) of 400 nM, an IC50 (HCT-116 (p53—/—)) of 12200 nM and an IC50 (RS4; 11 (p53 wt) [3]) of 0.13 ± 0.02 µM. It also gave an IC50 (LNCAP (p53 wild-type); [9]) of 330 nM.
For `CC(C)(C)C[C@H]1N[C@@H](C(=O)NC2CCC(O)CC2)[C@H](c2cccc(Cl)c2F)[C@@]12C(=O)Nc1cc(Cl)ccc12` (some centres unmarked) [MI-773], the IC50 (PC-3 (deleted p53); read-out: IC50 PC-3 (deleted p53)) was 14700 nM, the IC50 (HCT-116 (p53 wild-type); [10]) was 58 nM and the IC50 (SJSA-1 (p53 wild-type); [11]) was 61 nM. For the same compound, the IC50 (RS4; 11 (p53 wt) [3]; Four day treatment) was 0.13 µM and the IC50 (LNCAP (p53 wild-type); [12]) was 85 nM.
For `CC(C)(C)C[C@@H]1N[C@@H](C(=O)NC2CCC(O)CC2)[C@H](c2cccc(Cl)c2F)[C@]12C(=O)Nc1cc(Cl)ccc12` (some centres unmarked) [MI-77301 (TFA salt)], the IC50 (PC-3 (deleted p53); read-out: IC50 PC-3 (deleted p53), Four day treatment) was 13000 ± 3000 nM, the IC50 (HCT-116 (p53 wild-type); read-out: IC50 HCT-116 (p53 wild-type), Four day treatment) was 48 ± 14 nM and the IC50 (SJSA-1 (p53 wild-type); read-out: IC50 SJSA-1 (p53 wild-type), Four day treatment) was 83 nM and 75 nM. The IC50 (RS4; 11 (p53 wt) [3]; Four day treatment) was 0.059 ± 0.025 µM and the IC50 (LNCAP (p53 wild-type); read-out: IC50 LNCAP (p53 wild-type), Four day treatment) was 86 ± 16 nM.
In the case of `CC(C)(C)C[C@@H]1N[C@@H](C(=O)NC2CCC(O)CC2)[C@H](c2cccc(Cl)c2F)[C@]12C(=O)Nc1cc(Cl)ccc12` (some centres unmarked) [MI-77301 (free amine)], the IC50 (Ly7) is reported as greater than 10000 nM, the IC50 (22RV1) is reported as 399 nM and the IC50 (MCF7) is reported as 201 nM. It also gave an IC50 (PC-3 (deleted p53); 96 h, read-out: IC50 PC-3 (deleted p53), Four day treatment) of 8450 ± 350 nM, an IC50 (HCT-116 (p53 wild-type); Homo sapiens, HCT-116, 96 h, read-out: IC50 HCT-116 (p53 wild-type), Four day treatment) of 33 ± 10 nM and an IC50 ([2]; 22Rv1, 96 h, 96-well format) of 100 to 500 nM. The IC50 (MOLM13) was 14.7 nM, the IC50 (EHEB) was 70 nM and the IC50 (DoHH2) was 39.3 nM. The IC50 (SJSA-1 (p53 wild-type); Homo sapiens, SJSA-1, 96 h, read-out: IC50 SJSA-1 (p53 wild-type), Four day treatment) was 58 ± 23 nM, the IC50 (U2OS) was greater than 10000 nM and the “antitumor efficacy (tumor volume)” value [4] was “comparable efficacy to a continuous dosing regimen”. For the same compound, the IC50 (LnCap) was 50 nM, the IC50 (Hs746T) was 10000 nM and the IC50 (Y79) was 430 nM. It also gave an IC50 (SNU-5) greater than 10000 nM, an IC50 (SR) of 14.9 nM and an IC50 (RKO) of 480 nM. It also gave an IC50 (H1299) greater than 10000 nM, an IC50 (Ly10) of 90 nM and an IC50 (H929) of 114 nM. The IC50 (SJSA1) was 145 nM, the IC50 (RS4; 11 (p53 wt) [5]) was 102 nM and 81 nM and the IC50 (JAR) was 169 nM. The IC50 (HCT116) was 229 nM, the IC50 (LY3) was 280 nM and the IC50 (MKN45) was greater than 10000 nM. The IC50 (Capan2) was greater than 10000 nM, the IC50 (MV4; 11) was 45.4 nM and the IC50 (Ku812) was greater than 10000 nM. The IC50 (SNU-1) was 77 nM, the IC50 (LNCAP (p53 wild-type); Homo sapiens, LNCaP, 96 h, read-out: IC50 LNCAP (p53 wild-type), Four day treatment) was 54 ± 8 nM and the IC50 (CCF-STTG1) was 162 nM. The IC50 (Rec1) was 738 nM and the IC50 (RS4; 11) was 28 nM.
